Results taken from patent publication US7402575B2, “Methods of treating inflammation” (priority 2003, dated 2008).
“Also recorded” adds a separate entry of the source.

Tested on: E. coli sepsis in dogs
Test: Pretreatment Study: TAC given before E. coli sepsis, hemodynamics
Type: in vivo, dog
Details: for Arterial pH / HR / Hct / Pwp / SVR: mean±SE, n=6
Method: In all of the studies outlined, the animals were randomized into treatment and nontreatment placebo groups (see below). The E. coli model used in these studies was identical to that previously described (6). Sepsis was induced by the intravenous infusion of 10^10 colony forming units of live E. coli (designation 011:B4). The bacteria were suspended in normal saline solution and were given over 0.5 hour. A constant infusion of approximately 5×10^9 colony forming units/hour of E. coli was then maintained for the remainder of the experiment.
The animals (16-24 kg) were initially anesthetized with thiopental sodium (20 mg/kg, intravenously) and constantly infused with sufentanil citrate (1 ug/min) and midazolam (5 ug/kg/min) (33). Drug rates were adjusted as required to abolish the palpebral reflex. The animals were placed in the supine position; the trachea was intubated with an endotracheal tube; and the lungs were mechanically ventilated at a tidal volume of 20 ml/kg. The ventilator rate was initially set to maintain blood pH at approximately 7.35 and was increased as necessary to reverse the metabolic acidosis that developed over the course of the study. Approximately 100% oxygen was inspired, so that hypoxemia would not affect the results of the study.
Under sterile conditions, the right jugular vein was percutaneously cannulated with an introducer (Arrow International, Reading, Pa.). A thermister tipped catheter was advanced from the jugular vein into the pulmonary artery to measure mean pulmonary arterial pressure (Ppa), mean pulmonary capillary wedge pressure (Pwp), mean right atrial pressure (Pra), thermodilution cardiac output (CO, Columbus Instruments, OH), and to obtain mixed venous oxygen blood samples. Another introducer was placed into the left jugular vein for administration of intravenous saline solution and the treatment or placebo drug (see below). A polyethylene catheter was also percutaneously placed into the femoral artery to measure mean blood pressure (MAP), and to obtain samples of blood for blood gas analysis, blood hematocrit (Hct), lactate concentrations, and blood cultures in some cases. Lactate was measured by an automated lactate dehydrogenase based assay (34) and was performed only in ETS and LTS because of equipment difficulties in the Pretreatment Study.
All catheters were connected to transducers (Cobe Laboratories), were referenced relative to the left atrium and were connected to a chart recorder (Astro-Med, W Warwick, R.I.). Heart rate (HR) was measured from the recorder tracing. Stroke-volume (SV) was calculated as CO/HR. Systemic vascular resistance (SVR) was calculated from [(MAP-Pra)/CO]×80. At each measurement interval (see below), a full set of measurements included MAP, CO, Ppa, Pra, Pwp, Hct, HR, SV, and arterial and mixed venous blood samples.
In the analysis, stroke work (SW) was the primary index of cardiac performance and the primary hemodynamic endpoint chosen in the in vivo studies (35,18) (see Discussion). At constant preload, SW reflects both the decreases in afterload and the changes in contractile function that accompany sepsis. SW was determined at approximately the same Pwp at each measurement interval. The baseline Pwp usually averaged ≈8-10 mmHg, and normal saline solution was given as necessary to maintain Pwp constant over the experimental period. SW was calculated from SV (MAP-Pwp).
Pretreatment Study. In the Pretreatment Study, TAC was given before the bacteria were infused. Based on previous studies, it takes approximately 3 to 4 hours of constant bacteremia in order for myocardial depression to develop in this model (6,18). A three to five hour course of bacteremia was therefore considered necessary to determine if TAC could block the decline in SW observed at this interval. […]

[1] = immediately after TAC infusion, before sepsis

`CC(=O)N[C@H]1[C@H](O[C@H]2[C@H](O)[C@@H](NC(C)=O)C(O)O[C@@H]2CO)O[C@H](CO)[C@@H](O[C@@H]2O[C@H](CO)[C@@H](O)[C@H](O)[C@H]2NC(C)=O)[C@@H]1O` (stereo partly shown) [TAC, N,N′,N″ triacetylglucosamine] was tested, and the “CO after pretreatment, before sepsis” value was “no significant effect on CO”, the “CO at the 3 h period vs baseline” value was “CO increased further at the 3 h period” and the “MAP after treatment, before sepsis” value was “no effect on baseline MAP”. For the same compound, the “MAP at the 5 hour period vs nontreated group” value was “significantly prevented the decrease in MAP; also recorded: significant increases”, the “SV, change between baseline and 5 h vs nontreated group” value was “significantly different between the treated and nontreated groups; also recorded: significant increases” and the “SW, change between baseline and 5 h vs nontreated group” value was “significantly different between the treated and nontreated groups; also recorded: significant increases”. The “Arterial pH” value (3 h postsepsis) was 7.25 ± .001, the HR (3 h postsepsis) was 105 ± 5 beats/min and the Hct (3 h postsepsis) was 28 ± 2%. The Pwp (3 h postsepsis) was 9 ± .9 mmHg, the SVR (3 h postsepsis) was 1272 ± 221 dynes s cm^−5 and the “Arterial pH” value (5 h postsepsis) was 7.22 ± 0.1. The HR (5 h postsepsis) was 90 ± 5 beats/min, the Hct (5 h postsepsis) was 26 ± 3% and the Pwp (5 h postsepsis) was 9.6 ± .9 mmHg. The SVR (5 h postsepsis) was 1504 ± 249 dynes s cm^−5, the “Arterial pH” value (baseline before TAC) was 7.35 ± .01 and the HR (baseline before TAC) was 74 ± 11 beats/min. The Hct (baseline before TAC) was 33 ± 1%, the Pwp (baseline before TAC) was 9.3 ± .8 mmHg and the SVR (baseline before TAC) was 2472 ± 320 dynes s cm^−5. The “Arterial pH” value [1] was 7.28 ± .01, the HR [1] was 78 ± 5 beats/min and the Pwp [1] was 10.4 ± 1 mmHg. For the same compound, the SVR [1] was 1872 ± 320 dynes s cm^−5.
